Laboratory results from BindingDB's records for patent US10023557 (LIFESCI PHARMACEUTICALS, INC., 2018).

Biological target: Plasma kallikrein (Homo sapiens, UniProt P03952)
Assay: In Vitro Enzyme Inhibition of hPK
Conditions: pH 7.5
Protocol: A 10 mM solution of the test compound was made in DMSO. […] A control tube containing only DMSO is included. […] 50 μL was removed from this mixture and placed into duplicate wells on a Microfluor 1Black U-bottom microtiter plate (Thermo Scientific). This plate was incubated for 5 minutes at 37° C. To each well, 50 μL of pre-warmed 2×PFR-AMC was added to start the enzymatic reaction. Cleavage of PFR-AMC was monitored in a Biotek Synergy H4 reader set at 37° C. Readings are taken every 43 seconds for 1 hour. […] The IC50 is calculated using the Gen5 (Biotek Instruments).

Chain of Plasma kallikrein (P03952 20-390 limits assumed): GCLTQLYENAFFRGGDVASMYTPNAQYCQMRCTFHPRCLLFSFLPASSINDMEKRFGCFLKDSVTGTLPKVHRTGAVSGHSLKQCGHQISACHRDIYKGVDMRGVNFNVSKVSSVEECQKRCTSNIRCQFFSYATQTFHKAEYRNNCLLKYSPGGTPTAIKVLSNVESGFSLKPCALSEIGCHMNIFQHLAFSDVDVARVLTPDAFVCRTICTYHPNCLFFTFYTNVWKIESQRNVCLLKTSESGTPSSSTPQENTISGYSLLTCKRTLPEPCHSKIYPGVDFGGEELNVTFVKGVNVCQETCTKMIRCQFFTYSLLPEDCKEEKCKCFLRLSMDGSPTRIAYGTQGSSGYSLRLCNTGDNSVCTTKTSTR
Chain of Plasma kallikrein (P03952 391-638 limits assumed): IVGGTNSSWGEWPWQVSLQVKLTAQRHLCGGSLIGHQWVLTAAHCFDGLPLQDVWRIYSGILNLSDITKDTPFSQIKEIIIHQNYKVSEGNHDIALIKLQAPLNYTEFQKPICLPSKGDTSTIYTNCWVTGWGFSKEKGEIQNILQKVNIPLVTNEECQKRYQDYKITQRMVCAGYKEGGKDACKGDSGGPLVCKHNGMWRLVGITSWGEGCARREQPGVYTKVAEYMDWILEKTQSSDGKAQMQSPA

Question: `Cc1nc(N)ccc1CNC(=O)c1ccnc(CC2=CC3C=C(Cl)C=NC3C=C2)c1` (stereo unspecified) [US10023557, Example 39] was tested. Which IC50 did it give?
Answer: The IC50 was under 100 nM.
